Measurements taken from patent publication EP2364976B1, “S1P receptor modulating compounds and use thereof” (EPIX Pharmaceuticals, Inc., priority 2007, dated 2007).

These molecules were tested against T1, hS1P1 (Homo sapiens, UniProt P21453) (assay: hS1P1 EC50 (S1P receptor Ca2+ flux protocol, FLIPR, CHO K1 Gqi5 cells)). Details: several values per compound = repeat determinations as printed.
T1 construct: expressed in transfected cells
Assay type: cell-based
Method: S1P receptor activity may also be measured by an SIP receptor (e.g., hS1P1, hS1P3, rS1P1, rS1P3 and parental cell) Ca^2+ Flux protocol as described below: • 1. Material • a. FLIPR buffer: 1x HBSS; 10mM HEPES • b. Cell growth media: • i. human and rat S1P1 and S1P3: F12-Ham's media; 10% FBS (qualified); 1x Pen/Strep/Glu; 300ug/mL Hygromycin; 400ug/mL Geneticin ii. Parental cell: human and rat S1P and S1P3: F12-Ham's media; 10% FBS (qualified); 1x Pen/Strep/Glu; 300ug/mL Hygromycin; • c. Cell seeding media; F12-Ham's media; 10% FBS (Charcoal/dextran stripped); 1x Pen/Strep/Glu; • d. Cell dissociation buffer: Versene from Invitrogen • e. Agonist (SIP) dissolving buffer: 0.4% (w/v) fatty-acid free BSA (Sigma # A8806) in FLIPR buffer • f. FLIPR dye: BD PBX Calcium assay kit; Cat#641077 is composed of Calcium indicator (Cat#850000) and 100x PBX signal enhancer (cat#850001). The 100x PBX signal enhancer is diluted into FLIPR buffer 1:100 and the calcium indicator is then added at 1:1000 ratio. • g. Cell plates (96-well): Greiner Cat#655090 • h. Compound plates (96-well): Costar #3365 • i. S1P stock solution preparation: S1P is purchased from CalBioChem (Catalog # 970471; 1mg vial; custom prep using methanol, & nitrogen gas drying inside glass vial; Storage @ -20°C). Dissolve 1 vial of SIP into 26.4ml of agonist dissolving buffer in a 50ml centrifuge tube; Remove label from bottle of SIP, open and drop entire bottle into tube. Sonicate at 37° for ½ hour. Clear solution of 100µM will result. This stock solution is aliquoted and stored at -80C • 2. Cell line maintenance • a. V5 tags were added at the N-terminus of hS1P1, hS1P3, rS1P1 and rS1P3. All four genes were transfected into CHO K1 cells which stably express Gqi5. • b. hS1P1 and hS1P3 were established as stable clones and rS1P1 and rS1P3 were sorted by anti V5 tag and established as stable pools after sorting. • c. Parental cell line CHO/K1 Gqi5 is used as the control. • d. All the cells are maintained in cell growth media and splitted twice a week using Versene. • e. All the cell lines are used under passage 30. • 3. Assay protocol • a. Cell seeding: Cells are lifted from the flask by Versene and seeded in cell plates at 50K/well in cell seeding media. Cells are grown overnight at 37 degree. • b. Cell loading: Cell seeding media is discarded. Cells are loaded with 50ul of FLIPR dye at RT for 90 min. Signal is stable for up to 5 h after dye loading. • c. Agonist (S1P) preparation: Frozen stock of S1P is thawed out and sonicated at 37c for 30 minutes every time before use. The stock is then diluted into FLIPR buffer at proper concentration. • d. Compound preparation: Compounds are dissolved in DMSO. A 3x, 10 point dilution of the compounds are carried out in DMSO. Then the compounds are diluted into assay buffer133x so that the DMSO concentration is 0.75%. • e. Activity measurement: The fluorescence signal change of the cells upon compound addition is monitored in FLIPRtetra. 25ul of compound is transferred into the cell plates (50ul of FLIPR dye; DMSO concentration: 0.25%). Signal is recorded for 90sec after compound addition. Then 50ul of 500nM SIP is added in the cell plate, and signal is recorded for 90 seconds upon addition. • 4. Data analysis • a. Peak value is calculated for each compound/S1P addition • b. The peak value of S1P at 200nM is used as high control (100%), and the peak value of buffer only is used as low control (0%). • c. Data is normalized against high and low controls using the following equation: POC_S = 100*(RAW-LO)/(HI-LO) [formula] • d. Peak value is plotted against the concentration of compound. • e. Curve is fitted using the 4 parameter fit: Y = (A+(B/(1+(((x/C))^(∧)D)))) [formula] where: Y is POC_S (or POC) • X is compound concentration • A is the minimum (EC50min or IC50min) • B is the maxmum (EC50max or IC50max) • C is the inflection point (EC50IP or IC50IP) • D is the hill slope (EC50 slope or IC50 slope).

T1 sequence (P21453 whole entry): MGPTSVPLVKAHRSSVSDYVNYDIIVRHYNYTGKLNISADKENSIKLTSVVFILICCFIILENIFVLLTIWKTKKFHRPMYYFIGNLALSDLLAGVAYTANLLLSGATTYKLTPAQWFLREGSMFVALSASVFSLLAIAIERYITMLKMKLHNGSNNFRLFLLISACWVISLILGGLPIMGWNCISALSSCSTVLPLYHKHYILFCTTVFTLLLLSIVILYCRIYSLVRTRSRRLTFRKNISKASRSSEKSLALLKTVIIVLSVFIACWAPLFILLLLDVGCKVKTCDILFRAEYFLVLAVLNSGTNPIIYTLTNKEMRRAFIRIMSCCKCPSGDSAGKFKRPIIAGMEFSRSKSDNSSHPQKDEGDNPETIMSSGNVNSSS

Structure (SMILES)	EC50 [nM]
CC(CNCc1ccc(-c2cc3cc(Cc4ccccc4)ccc3o2)c(F)c1)C(=O)O (stereo not shown) [Reference Compound 82, 3-(4-(5-Benzylbenzofuran-2-yl)-3-fluorobenzylamino)-2-methylpropanoic acid]	1300
CC(C)Cc1ccc2oc(-c3ccc(CN4CCC(C(=O)O)CC4)cc3)cc2c1 [Reference Compound 13, 1-(4-(5-isobutylbenzofuran-2yl)benzyl)piperidine-4-carboxylic acid]	1700
Cc1cccc(-c2ccc3oc(-c4ccc(CN5CC(C(=O)O)C5)cc4)cc3c2)n1 [Reference Compound 18, 1-(4-(5-(6-methylpyridin-2-yl)benzofuran-2-yl)benzyl)azetidine-3-carboxylic acid]	2900
O=C(O)C1CN(Cc2ccc(-c3nc4cc(Cc5ccccc5)ccc4s3)c(F)c2)C1 [Inventive Compound 114, 1-((4-(5-Benzylbenzo[d]thiazol-2-yl)-3-fluorophenyl)methyl)azetidine-3-carboxylic acid]	29
O=C(O)C1CCN(Cc2ccc(-c3cc4cc(C5CCCCC5)ccc4o3)cc2)CC1 [Reference Compound 7, 1-(4-(5-cyclohexylbenzofuran-2-yl)benzyl)piperidine-4-carboxylic acid]	1600
CCCCOc1ccc2cc(-c3ccc(CN4CC(C(=O)O)C4)cc3)oc2c1 [Reference Compound 21, 1-((4-(6-Butoxybenzofuran-2-yl)phenyl)methyl)azetidine-3-carboxylic acid]	2000
O=C(O)[C@@H]1CCCN(Cc2ccc(-c3cc4cc(Cc5ccccc5)ccc4o3)c(F)c2)C1 [Reference Compound 62, (3R)-1-((4-(5-Benzylbenzofuran-2-yl)-3-fluorophenyl)methyl)piperidine-3-carboxylic acid]	5450

The next lines start with the values.

EC50 [nM]	Structure (SMILES)
803	O=C(O)C1CN(Cc2ccc(-c3cc4cc(OCC5CCCC5)ccc4o3)c(F)c2)C1 [Reference Compound 38, 1-(4-(5-(cyclopentylmethoxy)benzofuran-2-yl)-3-fluorobenzyl)azetidine-3-carboxylic acid]
129	O=C(O)C1CN(Cc2ccc(-c3cc4cc(Cc5ccccc5F)ccc4o3)c(F)c2)C1 [Reference Compound 75, 1-(3-Fluoro-4-(5-(2-fluorobenzyl)benzofuran-2-yl)benzyl)azetidine-3-carboxylic acid]
313	CC(c1ccc(-c2cc3cc(Cc4ccccc4)ccc3o2)c(F)c1)N1CC(C(=O)O)C1 (stereo not shown) [Reference Compound 123, 1-(1-(4-(5-benzylbenzofuran-2-yl)-3-fluorophenyl)ethyl)azetidine-3-carboxylic acid]
16	O=C(O)C1CN(Cc2ccc(-c3cc4cc(C(=NO)c5ccccc5)ccc4o3)c(F)c2)C1 (mixture of isomers) [Reference Compound 103, (E/Z)-1-((3-Fluoro-4-(5-((hydroxyimino)(phenyl)methyl)benzofuran-2-yl)phenyl)methyl)azetidine-3-carboxylic acid]
87	O=C(O)C1CN(Cc2ccc(-c3cc4cc(Cc5ncccn5)ccc4o3)c(F)c2)C1 [Reference Compound 100]
199	O=C(O)C1CN(Cc2ccc(-c3cc4cc(Cc5ccccc5)ccc4o3)c(Cl)c2)C1 [Reference Compound 36, 1-((4-(5-benzylbenzofuran-2-yl)-3-chlorophenyl)methyl)azetidine-3-carboxylic acid]
409	O=C(O)C1CN(Cc2ccc(-c3cc4cc(Cc5ccccc5)ncc4o3)c(F)c2)C1 [Reference Compound 108, 1-((4-(5-Benzylfuro[2,3-c]pyridin-2-yl)-3-fluorophenyl)methyl)azetidine-3-carboxylic acid]
520	CCCCOc1ccc2oc(-c3ccc(CN4CC(C(=O)O)C4)cc3)cc2c1 [Reference Compound 3]
420	Cc1nc(-c2cc3cc(Cc4ccccc4)ccc3o2)ccc1CN1CC(C(=O)O)C1 [Reference Compound 122, 1-((6-(5-Benzylbenzofuran-2-yl)-2-methylpyridin-3-yl)methyl)azetidine-3-carboxylic acid]
